Experimental findings from patent US8487098B2, “Synergistic combination of flumetsulam or diclosulam with isothiazolones” (Dow Global Technologies LLC, priority 2010, dated 2013) are described below.

Assay type in all cases: cell-based
Holding throughout (settings): 4 weeks; for % inhibition: at the total conc given; for Total conc, ppm: minimum inhibitory concentration in paint

In experiment [1] the test system is Alternaria alternata mixed with Trichoderma viride (AaTv). In words: Fungal efficacy testing, modified ASTM 5590, paint film. As to the method:
(§1) A single or blend of biocides was post added into white acrylic latex paint free of biocides to give a maximum total active ingredient/s concentration tested. This paint was then diluted with a biocide free acrylic latex paint to give targeted concentrations for the testing. Depending on the type of biocide blends tested, the total biocides concentrations varies from 200 to 5000 ppm. After biocides addition or dilution, each sample was hand mixed for at least a minute until uniformity is achieved. Each of the paint samples as well as a control sample (containing no biocide) were used to prepare films on black plastic-vinyl chloride/acetate copolymer panels (LENETA, Mahwah, N.J.) using a 3 mil (0.0762 mm) bird bar applicator. The panels were thoroughly dried for at least 2 days avoiding direct exposure to sunlight. Square discs (0.5 inch; 1.27 cm^2) were cut out from each panel and were used as the substrate for fungal and algal efficacy tests. This sample size allowed for an agar border when the sample disc was placed into the well of the test plate. Each sample was tested in duplicate
(§2) The appropriate media (BOLD'S 3N for Chlorophytes, BG-11 for Cyanobacteria, and PDA for fungi) were used to support microbial growth. The test plates were maintained at room temp (25° C.-26° C.), in a cycled light-dark environment, for four weeks for algae. Plates for fungal challenge tests were maintained at 30 C for four weeks. At the end of the incubation period the samples were scored for percent area covered by visible microbial growth.
(§3) Fungal Efficacy Testing—Modified ASTM 5590
(§4) ASTM 5590 is a standard accelerated test method for determining resistance of various coatings (including paints) to fungal defacement. To accommodate for high-throughput screening, this method was scaled down from petri plates to 6-well plates. To set up the test, an agar plug was placed at the bottom of each well of the sterile 6-well plate. A single coupon was placed with a pair of sterile forceps at the center of the agar plug (on top) with the painted surface facing upwards. Fungal inoculums were prepared by mixing equal concentrations (1×10^6 cfu/ml) and equal volumes (depending on number of samples to be tested) of like growing organisms. For Flumetsulam+various IT synergy study, three pools of mixed fungi were prepared as the test inoculum. Cladosporium herbarum was mixed with Aureobasidium pullulans; Aspergillus niger was mixed with Penicillium funiculosum and Alternaria alternata was mixed with Trichoderma viride. For Diclosulam+various IT synergy study, all above fungi were mixed as a single pool. Each well was inoculated with 400 μl of organism mixture (1×10^6 cfu/ml) making sure that the whole surface (paint film as well as the agar surrounding it) was evenly covered. The plates were incubated at 30° C. in presence of moisture, for a period of four weeks. The total percent area covered was evaluated and recorded at the end of each week after the 2nd week and recorded in increments of 5%.
(§5) Synergy Index Calculation
(§6) The SI is calculated based on F. C. Kull et.
(§7) Qa=the concentration of Biocide A in the blend
(§8) QA=The concentration of Biocide A as the only biocide
(§9) Qb=The concentration of Biocide B in the blend
(§10) QB=The concentration of Biocide B as the only biocide
(§11) SI value of <1 in the formula indicates a synergism of the blended biocides exists.
(§12) NE=no end point at the concentration tested that will meet the percent inhibition criteria set in each SI calculation

Experiment [2] has as its system Aspergillus niger mixed with Penicillium funiculosum (AnPf). The experiment is described as above. As to the method: as §1, §2, §3, §4, §5, §6, §7, §8, §9, §10, §11, §12
The test system of experiment [3] is Cladosporium herbarum mixed with Aureobasidium pullulans (ApCh). The experiment is described as above. As to the method: as §1, §2, §3, §4, §5, §6, §7, §8, §9, §10, §11, §12
Experiment [4] relates to Chlorella sp., Chlorella kessleri, and Nostoc commune (Cs + Ck + Nc). In words: Algal efficacy testing, modified ASTM 5589, paint film. As to the method: as §1, §2
(§13) Algal Efficacy Testing—Modified ASTM 5589
(§14) ASTM 5589 is a standard accelerated test method for determining resistance of various coatings (including paints) to algal defacement. To accommodate for high-throughput screening, this method was scaled down from petri plates to 6-well plates. A single coupon was placed with a pair of sterile forceps at the center of the agar plug (on top) with the painted surface facing upwards. Algal inoculums were prepared by mixing equal concentrations (1×10^6 cfu/ml) and equal volumes (depending on number of samples to be inoculated) of like growing organisms.
(§15) In Flumetsulam+various IT synergy study, three pool of mixed algae were prepared as the test inoculum, Gloeocapsa sp. and Oscillatoria sp. a mix of cyanobacteria grown on BG-11 media; Chlorella sp., Chlorella kessleri, and Nostoc commune are unicellular chlorphytes that were mixed and grown on Bold media; Trentepohlia aurea, Tretepohlia odorata, and Calotrix parientina are filamentous algae that were mixed and grown on Bold media.
(§16) Each well that contains a tested coupon was inoculated with 400 μl of organism mixture (1×10^6 cfu/ml) making sure that the whole surface (paint film as well as the agar surrounding it) was evenly covered. The plates were incubated at room temp (25° C.-26° C.) with cyclic exposure to light (OTT-Lite model #OTL4012P, 40 Watt, 26 KLumen) and dark phases, for a period of four weeks. The total area covered was evaluated at the end of each week according to percent area covered in 5% increments.
as §5, §6, §7, §8, §9, §10, §11, §12

Experiment [5] relates to Trentepohlia aurea, Tretepohlia odorata, and Calotrix parientina (Cp + To + Ta). The description is as above. How it is done:
as §1, §2, §13, §14, §15, §16, §5, §6, §7, §8, §9, §10, §11, §12

Experiment [6] relates to Gloeocapsa sp. and Oscillatoria sp. (Gs + Os). The experiment is described as above. As to the method: as §1, §2, §13, §14, §15
(§17) In Diclosulam+various IT synergy study, only two pools of mixed algae were prepared; Gloeocapsa sp. and Oscillatoria sp. grown on BG-11 media and Chlorella sp., Chlorella kessleri, Nostoc commune, Trentepohlia aurea, Tretepohlia odorata, and Calotrix parientina grown on Bold media
as §16, §5, §6, §7, §8, §9, §10, §11, §12

Experiment [7] has as its system Aa + Tv + An + Pf + Ap + Ch. In words: Fungal efficacy testing, modified ASTM 5590, paint film, single pool of all fungi. How it is done:
as §1, §2, §3, §4, §5, §6, §7, §8, §9, §10, §11, §12

The subject of experiment [8] is Cp + To + Ta + Cs + Ck + Nc. In words: Algal efficacy testing, modified ASTM 5589, paint film, pool grown on Bold media. As to the method: as §1, §2, §13, §14, §17, §16, §5, §6, §7, §8, §9, §10, §11, §12
The mark [9] stands for this setting: Flumetsulam:DCOIT synergy study.
Where [10] appears, read: Synergy study of Diclosulam and DCOIT.
[11] abbreviates: Flumetsulam:BBIT synergy study, NE=no end point.
Where [12] appears, read: Synergy study of Diclosulam+OIT.

Turning to `CCCCCCCCn1sc(Cl)c(Cl)c1=O` [DCOIT, 4,5-dichloro-2-n-octyl-4-isothiazolin-3-one], the “% inhibition” value in experiment [1] (setting [9]) is 85%; in experiment [2] (setting [9]), 100%; in experiment [3] (setting [9]), 100%; in experiment [4] (setting [9]) it was 100%; in experiment [5] (setting [9]), 100%; in experiment [6] (setting [9]) it was 100%. The “% inhibition” value in experiment [6] (setting [10]) worked out at 100%; in experiment [7] (setting [10]) it was 80%; in experiment [8] (setting [10]), 100%. Moreover, the “Total conc, ppm” value was 575 ppm in experiment [1] (setting [9]); 575 ppm in experiment [2] (setting [9]); 862.5 ppm in experiment [3] (setting [9]); 1150 ppm in experiment [4] (setting [9]); 143.75 ppm in experiment [5] (setting [9]); 143.75 ppm in experiment [6] (setting [9]). Moreover, the “Total conc, ppm” value in experiment [6] (setting [10]), in experiment [7] (setting [10]) and in experiment [8] (setting [10]) was 625 ppm throughout.
For `Cc1ccn2nc(S(=O)(=O)Nc3c(F)cccc3F)nc2n1` [Flumetsulam, N-(2,6-difluorophenyl)-5-methyl[1,2,4]triazolo[1,5-a]pyrimidine-2-sulfonamide], the “% inhibition” value came to 0% in experiment [1] (Flumetsulam:BBIT synergy study); 0% in experiment [1] (setting [9]); 0% in experiment [1] (Flumetsulam:OIT synergy study); 0% in experiment [2] (Flumetsulam:BBIT synergy study); 0% in experiment [2] (setting [9]); 65% in experiment [2] (Flumetsulam:OIT synergy study). In addition, the “% inhibition” value amounted to 0% in experiment [3] (Flumetsulam:BBIT synergy study); 90% in experiment [3] (setting [9]); 0% in experiment [3] (Flumetsulam:OIT synergy study); 0% in experiment [4] (Flumetsulam:BBIT synergy study); 100% in experiment [4] (setting [9]); 65% in experiment [4] (Flumetsulam:OIT synergy study). The “% inhibition” value in experiment [5] (Flumetsulam:BBIT synergy study) is on record as 0%; in experiment [5] (setting [9]) it was 95%; in experiment [5] (Flumetsulam:OIT synergy study), 60%; in experiment [6] (Flumetsulam:BBIT synergy study), 0%; in experiment [6] (setting [9]) it was 100%; in experiment [6] (Flumetsulam:OIT synergy study), 90%. The “Total conc, ppm” value in experiment [1] (setting [11]), in experiment [1] (setting [9]), in experiment [1] (Flumetsulam:OIT synergy study), in experiment [2] (Flumetsulam:BBIT synergy study), in experiment [2] (setting [9]) and in experiment [2] (Flumetsulam:OIT synergy study) was 3500 ppm in each case. Moreover, the “Total conc, ppm” value in experiment [3] (setting [11]) was 3500 ppm; in experiment [3] (setting [9]), 3500 ppm; in experiment [3] (Flumetsulam:OIT synergy study) it was 3500 ppm; in experiment [4] (Flumetsulam:BBIT synergy study), 3500 ppm; in experiment [4] (setting [9]), 1750 ppm; in experiment [4] (Flumetsulam:OIT synergy study) it was 2625 ppm. Also, the “Total conc, ppm” value came out at 3500 ppm in experiment [5] (setting [11]); 437.5 ppm in experiment [5] (setting [9]); 437.5 ppm in experiment [5] (Flumetsulam:OIT synergy study); 3500 ppm in experiment [6] (Flumetsulam:BBIT synergy study); 2625 ppm in experiment [6] (setting [9]); 437.5 ppm in experiment [6] (Flumetsulam:OIT synergy study).
As for `CCCCn1sc2ccccc2c1=O` [BBIT, N-n-butyl-1,2-benzisothiazolin-3-one], the “% inhibition” value in experiment [1] (Flumetsulam:BBIT synergy study) was found to be 0%; in experiment [2] (Flumetsulam:BBIT synergy study), 0%; in experiment [3] (Flumetsulam:BBIT synergy study), 80%; in experiment [4] (Flumetsulam:BBIT synergy study) it was 0%; in experiment [5] (Flumetsulam:BBIT synergy study), 0%; in experiment [6] (Flumetsulam:BBIT synergy study), 0%. Moreover, the “Total conc, ppm” value in experiment [1] (setting [11]) was 1150 ppm; in experiment [2] (Flumetsulam:BBIT synergy study), 1150 ppm; in experiment [3] (setting [11]), 575 ppm; in experiment [4] (Flumetsulam:BBIT synergy study) it was 1150 ppm; in experiment [5] (setting [11]) it was 1150 ppm; in experiment [6] (Flumetsulam:BBIT synergy study), 1150 ppm.
Regarding `CCOc1nc(F)cc2nc(S(=O)(=O)Nc3c(Cl)cccc3Cl)nn12` [Diclosulam, N-(2,6-dichlorophenyl)-5-ethoxy-7-fluoro[1,2,4]triazolo[1,5-c]pyrimidine-2-sulfonamide], the “% inhibition” value amounted to 100% in experiment [6] (setting [10]); 100% in experiment [6] (setting [12]); 40% in experiment [7] (setting [10]); 0% in experiment [7] (setting [12]); 100% in experiment [8] (setting [10]); 100% in experiment [8] (setting [12]). Further, the “Total conc, ppm” value amounted to 437.5 ppm in experiment [6] (setting [10]); 437.5 ppm in experiment [6] (setting [12]); 3500 ppm in experiment [7] (setting [10]); 3500 ppm in experiment [7] (setting [12]); 437.5 ppm in experiment [8] (setting [10]); 437.5 ppm in experiment [8] (setting [12]).
`CCCCCCCCn1sccc1=O` [OIT, 2-n-octyl-4-isothiazolin-3-one]: the “% inhibition” value in experiment [1] (Flumetsulam:OIT synergy study) is on record as 100%; in experiment [2] (Flumetsulam:OIT synergy study) it was 100%; in experiment [3] (Flumetsulam:OIT synergy study) it was 80%; in experiment [4] (Flumetsulam:OIT synergy study), 100%; in experiment [5] (Flumetsulam:OIT synergy study), 100%; in experiment [6] (Flumetsulam:OIT synergy study), 100%. In addition, the “% inhibition” value in experiment [6] (setting [12]), in experiment [7] (setting [12]) and in experiment [8] (setting [12]) was 100% in each case. For the same compound, the “Total conc, ppm” value worked out at 900 ppm in experiment [1] (Flumetsulam:OIT synergy study); 450 ppm in experiment [2] (Flumetsulam:OIT synergy study); 900 ppm in experiment [3] (Flumetsulam:OIT synergy study); 450 ppm in experiment [4] (Flumetsulam:OIT synergy study); 450 ppm in experiment [5] (Flumetsulam:OIT synergy study); 450 ppm in experiment [6] (Flumetsulam:OIT synergy study). For the same compound, the results for the “Total conc, ppm” value in experiment [6] (setting [12]), in experiment [7] (setting [12]) and in experiment [8] (setting [12]) were 900 ppm, 450 ppm and 900 ppm, respectively.

A word on the % inhibition: it is how much of the control response was suppressed.
